Laboratory results published in US20250085273A1, “NOVEL RAPID DRUG DISCOVERY FOR SEPSIS AND AGENTS FOR USE AS SEPSIS THERAPY” (priority 2023, published 2025).

What was measured:
muscarinic M1 receptor = biological target: T1, muscarinic M1 receptor (Homo sapiens, UniProt P11229); conditions: at 10 μM; cited from earlier work
T1 sequence (P11229 1-460): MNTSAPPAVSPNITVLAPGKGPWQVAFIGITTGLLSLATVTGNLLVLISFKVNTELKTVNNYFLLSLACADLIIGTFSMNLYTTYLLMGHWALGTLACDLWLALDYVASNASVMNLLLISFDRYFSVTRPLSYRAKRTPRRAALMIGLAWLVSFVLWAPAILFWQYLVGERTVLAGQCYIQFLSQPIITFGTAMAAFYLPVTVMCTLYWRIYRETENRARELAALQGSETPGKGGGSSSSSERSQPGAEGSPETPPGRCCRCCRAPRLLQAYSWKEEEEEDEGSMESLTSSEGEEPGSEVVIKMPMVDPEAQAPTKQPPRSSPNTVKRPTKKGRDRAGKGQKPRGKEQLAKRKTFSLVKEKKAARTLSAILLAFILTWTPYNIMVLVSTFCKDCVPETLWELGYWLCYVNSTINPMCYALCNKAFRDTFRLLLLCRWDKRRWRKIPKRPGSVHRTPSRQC

noradrenergic α1A = biological target: T2, noradrenergic α1A (Homo sapiens, UniProt P35348); conditions: read-out: affinity (Ki) α1A; cited from earlier work
T2 sequence (P35348 1-466): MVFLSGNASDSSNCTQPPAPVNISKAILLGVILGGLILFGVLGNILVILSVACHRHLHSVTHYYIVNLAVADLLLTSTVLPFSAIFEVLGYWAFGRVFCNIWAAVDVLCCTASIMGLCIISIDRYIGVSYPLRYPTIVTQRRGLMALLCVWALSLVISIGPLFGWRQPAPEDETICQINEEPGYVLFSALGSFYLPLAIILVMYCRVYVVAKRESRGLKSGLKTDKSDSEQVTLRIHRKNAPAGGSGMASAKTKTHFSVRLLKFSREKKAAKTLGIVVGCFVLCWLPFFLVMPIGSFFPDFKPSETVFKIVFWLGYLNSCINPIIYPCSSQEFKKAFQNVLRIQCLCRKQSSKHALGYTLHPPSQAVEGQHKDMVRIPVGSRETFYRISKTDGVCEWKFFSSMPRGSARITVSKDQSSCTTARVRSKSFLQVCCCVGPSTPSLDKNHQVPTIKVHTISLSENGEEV

α1B = biological target: T3, α1B (Homo sapiens, UniProt P35368); conditions: read-out: affinity (Ki) α1B; cited from earlier work
T3 sequence (P35368 1-520): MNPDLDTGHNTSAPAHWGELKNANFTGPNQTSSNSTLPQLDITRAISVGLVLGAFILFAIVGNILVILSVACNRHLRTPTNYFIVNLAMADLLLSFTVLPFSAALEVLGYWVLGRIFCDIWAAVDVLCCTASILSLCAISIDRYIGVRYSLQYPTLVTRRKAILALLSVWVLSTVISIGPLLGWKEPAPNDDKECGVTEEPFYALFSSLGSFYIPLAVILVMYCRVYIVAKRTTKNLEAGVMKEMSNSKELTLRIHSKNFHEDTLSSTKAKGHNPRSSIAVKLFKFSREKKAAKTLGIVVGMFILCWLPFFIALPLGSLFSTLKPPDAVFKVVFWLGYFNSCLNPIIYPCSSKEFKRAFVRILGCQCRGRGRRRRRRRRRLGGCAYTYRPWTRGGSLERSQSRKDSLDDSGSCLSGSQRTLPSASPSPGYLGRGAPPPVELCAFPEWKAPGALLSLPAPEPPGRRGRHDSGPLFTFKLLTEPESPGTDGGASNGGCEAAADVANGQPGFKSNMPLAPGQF

α2C = biological target: T4, α2C (Homo sapiens, UniProt P18825); conditions: read-out: affinity (Ki) α2C; cited from earlier work
T4 sequence (P18825 1-462): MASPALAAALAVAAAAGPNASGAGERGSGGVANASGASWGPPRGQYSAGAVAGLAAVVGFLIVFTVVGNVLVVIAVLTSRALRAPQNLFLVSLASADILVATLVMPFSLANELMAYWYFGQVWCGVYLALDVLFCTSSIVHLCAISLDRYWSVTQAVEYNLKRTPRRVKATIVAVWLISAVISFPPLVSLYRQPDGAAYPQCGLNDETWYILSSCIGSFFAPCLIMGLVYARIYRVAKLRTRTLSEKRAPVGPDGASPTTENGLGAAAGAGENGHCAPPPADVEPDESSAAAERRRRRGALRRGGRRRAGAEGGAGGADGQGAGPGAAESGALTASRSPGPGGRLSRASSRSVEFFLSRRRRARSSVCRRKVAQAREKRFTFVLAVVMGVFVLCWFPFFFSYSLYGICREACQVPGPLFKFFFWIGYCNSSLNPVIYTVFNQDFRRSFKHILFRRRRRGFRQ

α1D = biological target: T5, α1D (Homo sapiens, UniProt P25100); conditions: read-out: affinity (Ki) α1D; cited from earlier work
T5 sequence (P25100 1-572): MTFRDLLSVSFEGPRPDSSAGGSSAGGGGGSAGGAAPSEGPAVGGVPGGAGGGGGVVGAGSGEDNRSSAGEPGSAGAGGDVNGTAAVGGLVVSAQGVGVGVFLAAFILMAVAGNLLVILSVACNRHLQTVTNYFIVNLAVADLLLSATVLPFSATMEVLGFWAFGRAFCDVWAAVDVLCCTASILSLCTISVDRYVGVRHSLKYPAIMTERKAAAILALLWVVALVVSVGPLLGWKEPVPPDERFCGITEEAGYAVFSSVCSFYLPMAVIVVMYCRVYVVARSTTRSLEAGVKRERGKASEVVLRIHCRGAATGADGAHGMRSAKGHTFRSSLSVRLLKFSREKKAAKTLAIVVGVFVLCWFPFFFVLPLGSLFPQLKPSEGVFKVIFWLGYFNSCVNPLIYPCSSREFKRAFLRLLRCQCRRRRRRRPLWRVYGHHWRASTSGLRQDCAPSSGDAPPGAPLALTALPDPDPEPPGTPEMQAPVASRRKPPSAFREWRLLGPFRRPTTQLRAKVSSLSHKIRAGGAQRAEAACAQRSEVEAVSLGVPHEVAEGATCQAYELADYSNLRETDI

histamine H1 receptor = histamine H1 receptor (Homo sapiens, UniProt P35367); conditions: read-out: affinity for histamine H1 receptor; cited from earlier work
[1] = tested on: 5-dpf zebrafish challenged with K. Pneumoniae LPS (45 μg/mL); test: Challenge with K. Pneumoniae LPS (45 μg/mL), 5-dpf zebrafish; format: in vivo, Danio rerio
Method: These tests followed the same methods described in the 5-dpf zebrafish confirmatory testing, but K. Pneumoniae LPS (45 μg/mL final in well concentration) was used instead of P. aeruginosa LPS.

Sequence of histamine H1 receptor (P35367 whole entry, species assumed): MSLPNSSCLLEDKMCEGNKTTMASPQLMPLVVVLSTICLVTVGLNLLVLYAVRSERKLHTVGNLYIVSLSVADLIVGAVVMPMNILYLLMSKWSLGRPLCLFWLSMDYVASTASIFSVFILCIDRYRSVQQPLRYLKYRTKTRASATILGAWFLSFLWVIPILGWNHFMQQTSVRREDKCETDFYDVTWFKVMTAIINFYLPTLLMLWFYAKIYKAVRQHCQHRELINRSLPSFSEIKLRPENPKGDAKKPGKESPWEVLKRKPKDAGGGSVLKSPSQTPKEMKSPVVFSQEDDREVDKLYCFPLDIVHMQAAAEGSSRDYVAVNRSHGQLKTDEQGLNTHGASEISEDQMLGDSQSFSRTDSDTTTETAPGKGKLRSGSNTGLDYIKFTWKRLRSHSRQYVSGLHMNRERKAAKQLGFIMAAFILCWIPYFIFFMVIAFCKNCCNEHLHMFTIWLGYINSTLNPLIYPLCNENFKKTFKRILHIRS

In the case of O=c1ccc2ccc(OCCCCN3CCN(c4cccc5sccc45)CC3)cc2[nH]1 [Compound 45, Brexpiprazole], the “inhibition, muscarinic M1 receptor” value (muscarinic M1 receptor) is given as 67%, the Ki (noradrenergic α1A) is given as 3.8 nM and the Ki (α1B) is given as 0.17 nM. For the same compound, the Ki (α2C) was 0.59 nM, the Ki (α1D) was 2.6 nM and the Ki (histamine H1 receptor) was 19 nM. The “rescue of tail edema and mortality” value [1] was 100%.
